Patent US20230233569A1 (Revolution Medicines, Inc., priority 2020, published 2023)
pEC50, pIC50: −log10 of the molar value. Where two headings read alike, the source gives them in different places.

Columns and labels:
[1] = tested on: AsPC-1 (K-Ras G12D); assay: Potency assay: pERK; assay type: cell-based; conditions: Homo sapiens
[2] = tested on: AsPC-1 (K-Ras G12D); assay: CellTiter-Glo cell viability assay; assay type: cell-based; conditions: Homo sapiens, ASPC1, 120 h
Outline: (§1)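 Luminescent viability readout on day 5, plates first brought to room temperature for ~30 min; compounds added straight to plated RAS-mutant cells. Values expressed as percent of mean DMSO signal, curves fitted with a four-parameter logistic model.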

[3] = tested on: NCI-H358 (K-Ras G12C); assay: CellTiter-Glo cell viability assay; assay type: cell-based; conditions: Homo sapiens, NCI-H358, 120 h
Outline: as §1

[4] = molecular target: KRAS G12D (Homo sapiens, UniProt P01116+P62937, G12D); assay: Ras-Raf disruption / FRET / MOA assay (BRAF RBD); assay type: biochemical; conditions: with Cyclophilin A
Outline: (§2)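 Compound-induced Ras–Cyclophilin A ternary complex disrupting BRAF RBD binding, read as IC50 from reduced TR-FRET ratio relative to DMSO. Final: Ras-GMPPNP 12.5 nM, BRAF RBD 50 nM, Cyclophilin A 25 μM, top compound 30 μM (3-fold, 10 points); 3 h at 25 °C, then 1.5 h with detection antibodies.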

[5] = molecular target: KRAS G12S (Homo sapiens, UniProt P01116+P62937, G12S); assay: Ras-Raf disruption / FRET / MOA assay (BRAF RBD); assay type: biochemical; conditions: with Cyclophilin A
Outline: as §2

[6] = molecular target: KRAS G12V (Homo sapiens, UniProt P01116+P62937, G12V); assay: Ras-Raf disruption / FRET / MOA assay (BRAF RBD); assay type: biochemical; conditions: with Cyclophilin A
Outline: as §2

[7] = molecular target: KRAS G13C (Homo sapiens, UniProt P01116+P62937, G13C); assay: Ras-Raf disruption / FRET / MOA assay (BRAF RBD); assay type: biochemical; conditions: with Cyclophilin A
Outline: as §2

[8] = molecular target: KRAS G13D (Homo sapiens, UniProt P01116+P62937, G13D); assay: Ras-Raf disruption / FRET / MOA assay (BRAF RBD); assay type: biochemical; conditions: with Cyclophilin A
Outline: as §2

[9] = molecular target: KRAS WT (Homo sapiens, UniProt P01116+P62937); assay: Ras-Raf disruption / FRET / MOA assay (BRAF RBD); assay type: biochemical; conditions: with Cyclophilin A
Outline: as §2

[10] = molecular target: NRAS G12C (Homo sapiens, UniProt P01111+P62937, G12C); assay: Ras-Raf disruption / FRET / MOA assay (BRAF RBD); assay type: biochemical
Outline: as §2

[11] = molecular target: KRAS G12C (Homo sapiens, UniProt P01116+P62937, G12C); assay: Ras-Raf disruption / FRET / MOA assay (BRAF RBD); assay type: biochemical; conditions: with Cyclophilin A
Outline: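 TR-FRET read-out after 1.5 h with anti-His Eu-W1024 (10 nM) and anti-GST APC (50 nM), following 3 h at 25 °C of compound (top 30 μM, 3-fold, 10 points) with 25 μM Cyclophilin A, 12.5 nM GMPPNP-loaded K-Ras G12C and 50 nM BRAF RBD; IC50 reported.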

[12] = read-out: AsPC-1 Cell Viability assay data IC50, K-Ras G12D, 5-day treatment
[13] = read-out: H358 Cell Viability assay data IC50, K-Ras G12C, 5-day treatment
[14] = KRAS G12D FRET data IC50, Ras-Raf disruption
[15] = KRAS G12S FRET data IC50, Ras-Raf disruption
[16] = KRAS G12V FRET data IC50, Ras-Raf disruption
[17] = KRAS G13C FRET data IC50, Ras-Raf disruption
[18] = KRAS G13D FRET data IC50, Ras-Raf disruption
[19] = KRAS WT FRET data IC50, Ras-Raf disruption
[20] = NRAS G12C FRET data IC50, NRAS G12C
[21] = KRAS G12C FRET data IC50, Ras-Raf disruption

Chain of KRAS WT (P01116 1-169 isoform P01116-2 limits assumed): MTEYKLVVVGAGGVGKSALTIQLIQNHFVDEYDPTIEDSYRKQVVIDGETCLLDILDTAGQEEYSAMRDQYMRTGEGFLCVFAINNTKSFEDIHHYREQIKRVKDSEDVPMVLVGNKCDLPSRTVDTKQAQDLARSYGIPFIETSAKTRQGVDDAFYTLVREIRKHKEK
Chain of KRAS WT (P62937 whole entry): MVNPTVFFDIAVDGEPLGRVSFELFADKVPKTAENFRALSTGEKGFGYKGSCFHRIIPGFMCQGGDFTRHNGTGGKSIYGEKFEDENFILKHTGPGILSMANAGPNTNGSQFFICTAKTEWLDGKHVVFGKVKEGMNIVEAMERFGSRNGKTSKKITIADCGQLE
Chain of KRAS G13D (P01116 1-169 isoform P01116-2 G13D limits assumed): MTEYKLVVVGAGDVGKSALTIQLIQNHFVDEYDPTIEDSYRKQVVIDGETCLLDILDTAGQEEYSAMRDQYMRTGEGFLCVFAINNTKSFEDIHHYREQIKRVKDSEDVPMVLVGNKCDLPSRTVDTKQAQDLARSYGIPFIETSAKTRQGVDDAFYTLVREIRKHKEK
Chain of KRAS G13D (P62937 whole entry): as the sequence (P62937 whole entry) above
Chain of KRAS G12D (P01116 1-169 isoform P01116-2 G12D limits assumed): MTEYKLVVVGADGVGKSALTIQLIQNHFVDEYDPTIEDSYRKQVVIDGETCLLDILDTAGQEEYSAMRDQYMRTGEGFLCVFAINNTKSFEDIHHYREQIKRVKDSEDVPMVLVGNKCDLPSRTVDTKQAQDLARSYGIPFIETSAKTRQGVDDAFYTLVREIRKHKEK
Chain of KRAS G12D (P62937 whole entry): as the sequence (P62937 whole entry) above
Chain of KRAS G12C (P01116 1-169 isoform P01116-2 G12C limits assumed): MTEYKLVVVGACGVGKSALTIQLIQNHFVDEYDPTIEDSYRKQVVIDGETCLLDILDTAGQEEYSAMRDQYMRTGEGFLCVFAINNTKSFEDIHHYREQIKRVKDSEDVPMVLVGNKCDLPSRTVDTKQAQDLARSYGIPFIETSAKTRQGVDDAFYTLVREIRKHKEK
Chain of KRAS G12C (P62937 whole entry): as the sequence (P62937 whole entry) above
Chain of KRAS G12S (P01116 1-169 isoform P01116-2 G12S limits assumed): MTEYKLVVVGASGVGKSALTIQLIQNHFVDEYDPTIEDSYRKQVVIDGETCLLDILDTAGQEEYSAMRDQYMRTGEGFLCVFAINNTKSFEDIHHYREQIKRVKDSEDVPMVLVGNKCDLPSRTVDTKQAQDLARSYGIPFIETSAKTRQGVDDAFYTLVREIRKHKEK
Chain of KRAS G12S (P62937 whole entry): as the sequence (P62937 whole entry) above
Chain of KRAS G13C (P01116 1-169 isoform P01116-2 G13C limits assumed): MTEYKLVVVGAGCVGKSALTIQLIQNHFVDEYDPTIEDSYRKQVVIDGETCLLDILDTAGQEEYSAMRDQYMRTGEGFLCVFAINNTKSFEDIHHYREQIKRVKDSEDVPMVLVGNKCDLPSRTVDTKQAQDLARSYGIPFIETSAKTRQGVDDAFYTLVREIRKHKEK
Chain of KRAS G13C (P62937 whole entry): as the sequence (P62937 whole entry) above
Chain of NRAS G12C (P01111 whole entry G12C): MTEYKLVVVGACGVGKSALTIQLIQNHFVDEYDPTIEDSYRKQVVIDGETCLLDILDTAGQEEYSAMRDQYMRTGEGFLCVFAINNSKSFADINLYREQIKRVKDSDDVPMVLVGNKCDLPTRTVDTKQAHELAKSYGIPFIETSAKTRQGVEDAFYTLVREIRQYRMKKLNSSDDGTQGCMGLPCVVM
Chain of NRAS G12C (P62937 whole entry): as the sequence (P62937 whole entry) above
Chain of KRAS G12V (P01116 1-169 isoform P01116-2 G12V limits assumed): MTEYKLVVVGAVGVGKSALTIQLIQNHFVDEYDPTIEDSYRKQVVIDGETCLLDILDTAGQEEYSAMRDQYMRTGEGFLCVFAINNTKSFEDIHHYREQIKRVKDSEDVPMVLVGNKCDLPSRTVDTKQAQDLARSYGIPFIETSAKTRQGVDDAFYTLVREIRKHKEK
Chain of KRAS G12V (P62937 whole entry): as the sequence (P62937 whole entry) above

Row | Compound | pEC50 ([1]; ASPC1, read-out: pERK EC50) | pIC50 [2, 12] | pIC50 [3, 13] | pIC50 [4, 14] | pIC50 [5, 15] | pIC50 [6, 16] | pIC50 [7, 17] | pIC50 [8, 18] | pIC50 [9, 19] | pIC50 [10, 20] | pIC50 [11, 21] | further results
1 | CCn1c(-c2cccnc2[C@H](C)OC)c2c3cc(ccc31)-c1cc(O)cc(c1)C[C@H](NC(=O)[C@H](C1CCCC1)N(C)C(=O)CN(C)C(=O)[C@H]1CN1)C(=O)N1CCC[C@H](N1)C(=O)OCC(C)(C)C2 [Example 95] | > 5.30 | 7.00 to 8.00 | > 8.00 | 7.00 to 8.00 | 7.00 to 8.00 | 7.00 to 8.00 | 7.00 to 8.00 | 7.00 to 8.00 | 7.00 to 8.00 | > 8.00 | > 8.00 | –
2 | CCn1c(-c2cccnc2[C@H](C)OC)c2c3cc(ccc31)-c1cccc(c1)C[C@H](NC(=O)[C@H](C(C)C)N(C)C(=O)CN(C)C(=O)[C@H]1CN1)C(=O)N1CCC[C@H](N1)C(=O)OCC(C)(C)C2 [Example 107] | > 5.30 | 5.00 to 6.00 | 6.00 to 7.00 | 5.00 to 6.00 | 5.00 to 6.00 | 5.00 to 6.00 | 6.00 to 7.00 | 5.00 to 6.00 | 5.00 to 6.00 | 6.00 to 7.00 | 6.00 to 7.00 | –
3 | CCn1c(-c2cccnc2[C@H](C)OC)c2c3cc(ccc31)-c1cc(O)cc(c1)C[C@H](NC(=O)[C@H](C1CCCC1)N(C)C(=O)[C@H]1CCN(C[C@H]3CN3)C1=O)C(=O)N1CCC[C@H](N1)C(=O)OCC(C)(C)C2 [Example 58] | – | – | – | – | – | – | – | – | – | – | – | pEC50 ([1]; ASPC1, AsPC-1 KRAS G12D, read-out: pERK EC50): > 5.30; pIC50 ([2]; K-Ras G12D, 5-day treatment, read-out: AsPC-1 Cell Viability assay data IC50): 6.00 to 7.00; pIC50 ([3]; K-Ras G12C, 5-day treatment, read-out: H358 Cell Viability assay data IC50): > 8.00; pIC50 ([4]; Ras-Raf disruption, read-out: KRAS G12D FRET data IC50): 6.00 to 7.00; pIC50 ([5]; Ras-Raf disruption, read-out: KRAS G12S FRET data IC50): 7.00 to 8.00; pIC50 ([6]; Ras-Raf disruption, read-out: KRAS G12V FRET data IC50): 7.00 to 8.00; pIC50 ([7]; Ras-Raf disruption, read-out: KRAS G13C FRET data IC50): 7.00 to 8.00; pIC50 ([8]; Ras-Raf disruption, read-out: KRAS G13D FRET data IC50): 7.00 to 8.00; pIC50 ([9]; Ras-Raf disruption, read-out: KRAS WT FRET data IC50): 7.00 to 8.00; pIC50 ([10]; NRAS G12C, read-out: NRAS G12C FRET data IC50): > 8.00; pIC50 ([11]; Ras-Raf disruption, read-out: KRAS G12C FRET data IC50): > 8.00
4 | CCn1c(-c2cccnc2[C@H](C)OC)c2c3cc(ccc31)-c1cc(O)cc(c1)C[C@H](NC(=O)[C@H](C(C)C)N(C)C(=O)CN(C)C(=O)[C@H]1CN1CCCOC)C(=O)N1CCC[C@H](N1)C(=O)OCC(C)(C)C2 (some centres unmarked) [Example 201] | > 5.30 | 6.00 to 7.00 | > 8.00 | 6.00 to 7.00 | 7.00 to 8.00 | 7.00 to 8.00 | 7.00 to 8.00 | 6.00 to 7.00 | 7.00 to 8.00 | > 8.00 | > 8.00 | –
5 | CCn1c(-c2cccnc2[C@H](C)OC)c2c3cc(ccc31)-c1cc(O)cc(c1)C[C@H](NC(=O)[C@H](C(C)C)N(C)C(=O)CN(C)C(=O)[C@H]1CN1C(C)C)C(=O)N1CCC[C@H](N1)C(=O)OCC(C)(C)C2 (some centres unmarked) [Example 142] | > 5.30 | 6.00 to 7.00 | > 8.00 | 6.00 to 7.00 | 7.00 to 8.00 | 6.00 to 7.00 | 7.00 to 8.00 | 6.00 to 7.00 | 6.00 to 7.00 | > 8.00 | > 8.00 | –
6 | CCn1c(-c2cccnc2[C@H](C)OC)c2c3cc(ccc31)-c1cc(O)cc(c1)C[C@H](NC(=O)[C@H](C(C)C)N(C)C(=O)CN(C)C(=O)[C@H]1CN1Cc1ccccc1F)C(=O)N1CCC[C@H](N1)C(=O)OCC(C)(C)C2 (some centres unmarked) [Example 155] | > 5.30 | 6.00 to 7.00 | > 8.00 | 6.00 to 7.00 | 7.00 to 8.00 | 7.00 to 8.00 | 7.00 to 8.00 | 6.00 to 7.00 | 7.00 to 8.00 | > 8.00 | 7.00 to 8.00 | –
7 | CCn1c(-c2cnccc2COC)c2c3cc(ccc31)-c1cc(O)cc(c1)C[C@H](NC(=O)[C@H](C(C)C)N(C)C(=O)CN(C)C(=O)[C@@H]1N[C@@H]1C(=O)OC)C(=O)N1CCC[C@H](N1)C(=O)OCC(C)(C)C2 [Example 49] | > 5.30 | 5.00 to 6.00 | 5.00 to 6.00 | 6.00 to 7.00 | 6.00 to 7.00 | 6.00 to 7.00 | 7.00 to 8.00 | 6.00 to 7.00 | 6.00 to 7.00 | 7.00 to 8.00 | 7.00 to 8.00 | –
